Measurements as given in patent US9073961B2, “Substitution derivatives of N6 -benzyladenosine-5′-monophosphate, methods of preparation thereof, use thereof as medicaments, and therapeutic preparations containing these compounds” (UNIVERZITA PALACKEHO V OLOMOUCI, priority 2010, dated 2015).

Legend:
MCF-7 (breast carcinoma) = test: Calcein AM cytotoxicity assay, MCF7; assay type: cell-based; conditions: 72 hours incubation
Summary of the method: (§1)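 Fluorescence of calcein from hydrolysed Calcein AM (1 μg/ml final, 1 h) measured after 72 h compound exposure at 37 °C, 5% CO2. Compounds tested at six 3-fold dilutions up to 166.7 μM, triplicates. GI50 = concentration halving esterase activity versus untreated control wells.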

[1] = system: cytokinin-dependent tobacco callus Nicotiana tabacum L. cv. Wisconsin 38; test: Growth of cytokinin-dependent tobacco callus; assay type: cell-based
[2] = system: HOS (human osteogenic sarcoma); test: Calcein AM cytotoxicity assay, HOS; assay type: cell-based; conditions: 72 hours incubation
Summary of the method: as §1

Human lymphocytes = test: Immunosuppressive activity, 3H-thymidine incorporation in concanavalin A activated lymphocytes; assay type: cell-based; conditions: 72 hours, [3H]-TdR incorporation, read-out: Human lymphocytes ED50
Description: One of the most important parameters of specific cellular immunity is the proliferative response of lymphocytes to antigens or polyclonal mitogens. The majority of normal mammalian peripheral lymphocytes comprise resting cells. Antigens or nonspecific polyclonal mitogens have the capacity to activate lymphoid cells and this is accompanied by dramatic changes of intracellular metabolism (mitochondrial activity, protein synthesis, nucleic acids synthesis, formation of blastic cells and cellular proliferation). […] Variety of in vitro assays was developed to measure proliferative response of lymphocytes. The most commonly used is ^3H-thymidine incorporation method.
During cell proliferation, DNA has to be replicated before the cell is divided into two daughter cells. This close association between cell doublings and DNA synthesis is very attractive for assessing cell proliferation. If labelled DNA precursors are added to the cell culture, cells that are about to divide incorporate the labelled nucleotide into their DNA. Traditionally, those assays usually involve the use of radiolabelled nucleosides, particularly tritiated thymidine ([^3H]-TdR). The amount of [^3H]-TdR incorporated into the cellular DNA is quantified by liquid scintillation counting.
Human heparinized peripheral blood was obtained from healthy volunteers by cubital vein punction. The blood was diluted in PBS (1:3) and mononuclear cells were separated by centrifugation in Ficoll-Hypaque density gradient (Pharmacia, 1.077 g/ml) at 2200 rpm for 30 minutes. Following centrifugation, lymphocytes were washed in PBS and resuspended in cell culture medium (RMPI 1640, 2 mM glutamine, 100 U/ml penicillin, 100 μg/ml streptomycin, 10% fetal calf serum and sodium bicarbonate).
The cells were diluted at target density of 1.100.000 cells/ml and were added by pipette (180 μl) into 96-well microtiter plates. Four-fold dilutions of the intended test concentration were added at time zero in 20 μl aliquots to the microtiter plate wells. Usually, test compound was evaluated at six 4-fold dilutions. In routine testing, the highest well concentration was 266.7 μM. All drug concentrations were examined in duplicates. All wells with exception of unstimulated controls were activated with 50 μl of concanavalin A (25 μg/ml). Incubations of cells with test compounds lasted for 72 hours at 37° C., in 5% CO2 atmosphere and 100% humidity. At the end of incubation period, the cells were assayed by using the [^3H]-TdR:
Cell cultures were incubated with 0.5 μCi (20 μl of stock solution 500 μCi/ml) per well for 6 hours at 37° C. and 5% CO2. The automated cell harvester was used to lyse cells in water and adsorb the DNA onto glass-fiber filters in the format of microtiter plate. The DNA incorporated [^3H]-TdR was retained on the filter while unincorporated material passes through. The filters were dried at room temperature overnight, sealed into a sample bag with 10-12 ml of scintillant. The amount of [^3H]-TdR present in each filter (in cpm) was determined by scintillation counting in a Betaplate liquid scintillation counter. The effective dose of immunosuppressant (ED) was calculated using the following equation: ED=(CCPMdrug exposed well/mean CCPMcontrol wells)×100%. The ED50 value, the drug concentration inhibiting proliferation of 50% of lymphocytes, was calculated from the obtained dose response curves.
To evaluate immunosuppressive activity of substituted adenines, their ability to inhibit polyclonal mitogen induced proliferation of normal human lymphocytes was analyzed (Table 4). […] Effective immunosuppressive dose of new derivatives under in vitro conditions was close to 10-40 μM.

[3] = system: G-361 (human malignant melanoma); test: Calcein AM cytotoxicity assay, G-361; assay type: cell-based; conditions: 72 hours incubation
Description: Because toxic compounds negatively influence metabolic processes in cells, many standard cytotoxicity assays are based on measurement of metabolisation rate of various artificial substrates. Resulting product is then quantified e.g. by means of spectrometry. The assays can be easily modified for use in 96-well plates. For evaluation of cytotoxic effect of the novel substituted 9-substituted cytokinin derivatives of this invention, a microtiter assay based on quantification of metabolisation of Calcein AM was used. The assay is widely used in drug screening programs and in chemosensitivity testing. In the living cells, Calcein AM is enzymatically hydrolysed and accumulation of resulting calcein is manifested by green fluorescence.
In the routine screening the following cell lines have been used: CEM (T-lymphoblastoid leukemia), HL-60 (promyelocytic leukemia), K-562 (human erythroleukemia), MCF-7 (breast carcinoma), HOS (human osteogenic sarcoma), and G-361 (human malignant melanoma). Normal human fibroblasts BJ were used as a control for routine screening of the compounds. The cells were kept in Nunc/Corning 80 cm^2 plastic bottles and grown in cell culture medium (DMEM containing 5 g/l glucose, 2 mM glutamine, 100 U/ml penicilline, 100 μg/ml streptomycine, 10% fetal bovine serum and sodium hydrogencarbonate), the compounds were prepared according to the procedure of the present invention.
The cell suspensions were prepared and diluted according to the particular cell type and the expected target cell density (2.500-30.000 cells per well based on cell growth characteristics) and pippetted (80 μl) into 96-well plates. Inoculates were allowed a pre-incubation period of 24 hours at 37° C. and 5% CO2 for stabilisation. Tested compound was added in total volume of 20 μl of water at time zero. Usually, test compound was evaluated at six 3-fold dilutions. In routine testing, the highest concentration tested was 166.7 μM. All drug concentrations were tested in triplicates. Incubations of cells with the test compounds lasted for 72 hours at 37° C., in 5% CO2 atmosphere and 100% humidity. At the end of incubation period Calcein AM in PBS was added into final concentration of 1 μg/ml. After another 1 hour of incubation fluorescence (FD) was measured with the Labsystem FIA Reader Fluoroscan Ascent (Microsystems). Tumor cell survival (TCS) was estimated using the following equation: […]=(FDdrug exposed well/FDcontrol well)×100%. The GI50 value, the drug concentration causing 50% reduction of esterase activity, was calculated from the obtained dose response curves (FIG. 1).
Cytoxicity of novel compounds was tested on panel of cell lines of different histogenetic and species origin (Table 3). […] The effective novel derivatives killed tumour cells in concentrations close to 0.1-50 μM.

[4] = system: Normal human fibroblasts BJ; test: Calcein AM cytotoxicity assay, BJ; assay type: cell-based; conditions: 72 hours incubation
Summary of the method: as §1

[5] = system: HL-60 (promyelocytic leukemia); test: Calcein AM cytotoxicity assay, HL60; assay type: cell-based, human; conditions: 72 hours incubation
Summary of the method: as §1

[6] = system: CEM (T-lymphoblastoid leukemia); test: Calcein AM cytotoxicity assay, CEM; assay type: cell-based; conditions: 72 hours incubation, Calcein AM
Summary of the method: as §1

[7] = system: K-562 (human erythroleukemia); test: Calcein AM cytotoxicity assay, K-562; assay type: cell-based; conditions: 72 hours incubation
Summary of the method: as §1

p21^WAF-1 = test: Induction of p21WAF-1 expression in MCF-7 cells (immunoblot); assay type: cell-based
Experimental: MCF-7 cells cultured at 37° C. in 5% CO2 atmosphere in DMEM medium supplemented with 10% foetal calf serum were treated with compound 28 concentration ranges of 0-100 μM. Compound 28 was added into the medium from the 100 mM stock solution in DMSO. Cells were harvested 12 hours after incubation with compound 28, centrifuged (1000 rpm, 4° C., 5 min), washed twice by ice-cold PBS and re-centrifuged. These washed cells were then lysed by 1×CSB (loading buffer for SDS-PAGE, i.e. electrophoresis of proteins in polyacrylamide gel containing SDS). Cell lysate proteins were separated by SDS-PAGE and transferred onto a nitrocelulose (NC) membrane. NC membrane was blocked by 5% skimmed milk, 0.1% Tween 20 in PBS. Protein level of p21^WAF-1 and actin (as a loaded protein volume control) were detected immunochemically using commercially available specific monoclonal antibodies anti-p21^WAF-1 (Ab-1, Calbiochem) and anti-Actin (Clone AC-40, Sigma-Aldrich). The primary antibodies bind to target proteins were detected using rabbit secondary peroxidase-labeled antibody (RAM-Px, DAKO), followed by chemiluminiscence (ECL, Amersham-Pharmacia).
MCF-7 cells were incubated in the presence of 1 μmol of compound 28. In various time intervals from the moment of administration of 28 the cells were harvested and lyzed. […]

EC50 (Human lymphocytes) [µM]	Compound	GI50 (MCF-7 (breast carcinoma)) [µM]	Activity (%) [10^−5 mol · l^−1 KR = 100%] ([1]; at concentration with highest activity, relative to control cytokinin) [%]	Concentration with highest activity ([1]; tobacco callus fresh weight after four weeks)	GI50 [2] [µM]	GI50 [3] [µM]	GI50 [4] [µM]	GI50 [5] [µM]	GI50 [6] [µM]	GI50 [7] [µM]	time of effective induction of p21^WAF-1 after addition (p21^WAF-1; 1 μmol concentration) [h]	p21^WAF-1 protein induction in relation to concentration (p21^WAF-1; 12 hours, 0-100 μM tested, effective in range of units imol per liter)
11.5	O=P(O)(O)OC[C@H]1O[C@@H](n2cnc3c(NCc4cccc(F)c4)ncnc32)[C@H](O)[C@@H]1O [Compound 2, 6-(3-fluorobenzylamino)purine riboside-5′-monophosphate]	16.6	103 ± 6	10^−5 mol · l^−1	> 167	15.7	> 167	0.92	4	7	–	–
12.8	O=P(O)(O)OC[C@H]1O[C@@H](n2cnc3c(NCc4cccc(O)c4)ncnc32)[C@H](O)[C@@H]1O [Compound 22, 6-(3-hydroxybenzylamino)purine riboside-5′-monophosphate]	> 167	–	–	> 167	> 167	> 167	23.7	51.9	> 167	–	–
1.2	COc1cccc(CNc2ncnc3c2ncn3[C@@H]2O[C@H](COP(=O)(O)O)[C@@H](O)[C@H]2O)c1O [Compound 28, 6-(2-hydroxy-3-methoxybenzylamino)purine riboside-5′-monophosphate]	30.4	–	–	24.1	27.9	69.7	0.5	0.3	2.1	6 to 24	efficient p21^WAF-1 protein induction is achieved
